A word on the IC50: it is the concentration at which inhibition is half-maximal.

This note sets out measurements from US9840498B2, “Substituted quinazolin-4-one derivatives” (NOVARTIS AG, priority 2013, dated 2017).

What all share (conditions): enzymatic assay
The target in one experiment is PI3K delta (Homo sapiens (Human), UniProt O00329). The experiment in a line: Biochemical assay for PI3Kdelta (Adapta TR-FRET format). The text has this: (§1) For the enzymatic assays, the preparation of PI3K gene constructs, protein expression and purification for HTS are described in WO2012/004299. […] The TR-FRET Adapta™ Universal Kinase Assay Kit was purchased from Invitrogen Corporation (Carlsbad/CA, USA) (Cat. No. PV5099). The kit contains the following reagents: Adapta Eu-anti-ADP Antibody (Europium labeled anti-ADP antibody in HEPES buffered saline, Cat. No. PV5097), Alexa Fluor® 647-labeled ADP tracer (Alexa Fluor® 647-labeled ADP tracer in HEPES buffered saline, Cat. No. PV5098), proprietary TR-FRET dilution buffer pH 7.5 (Cat. No. PV3574). PIK3CD substrate Phosphatidylinositol was obtained from Invitrogen (vesicules consisting of 2 mM PI in 50 mM HEPES pH7.5; Cat. No. PV5371). PIK3CG substrate Phosphatidylinositol-4,5-bisphosphate (PIP(4,5)2 was obtained from Invitrogen (PIP2:PS large unilamellar vesicules consisting of 1 mM PI P2: 19 mM PS in 50 mM HEPES pH7.5, 3 mM MgCl2, 1 mM EGTA; Cat. No. PV5100). Time-Resolved Fluorescence Resonance Energy Transfer (TR-FRET) is a technology based on energy transfer between two adjacent dyes, from an excited electron in one dye (the donor) to an electron of an adjacent dye (the acceptor) through resonance, then released as a photon. This energy transfer is detected by an increase in the fluorescence emission of the acceptor, and a decrease in the fluorescence emission of the donor. TR-FRET assays for protein kinases use a long-lifetime lanthanide Terbium or Europium chelates as the donor species which overcome interference from compound autofluorescence or light scatter from precipitated compounds, by introducing a delay after excitation by a flashlamp excitation source. Results are often expressed as a ratio of the intensities of the acceptor and donor fluorophores. The ratiometric nature of such a value corrects for differences in assay volumes between wells, as well as corrects for quenching effects due to colored compounds. The Adapta™ assay can be divided into two phases: a kinase reaction phase and an ADP detection phase. In the kinase reaction phase, all kinase reaction components are added to the well and the reaction is allowed to incubate for a set period of time specific for each kinase. After the reaction, a detection solution of Eu-labeled anti-ADP antibody, Alexa Fluor® 647-labeled ADP tracer, and EDTA (to stop the kinase reaction) are added to the assay well. ADP formed by the kinase reaction will displace the Alexa Fluor® 647-labeled ADP tracer from the antibody, resulting in a decrease in TR-FRET signal. In the presence of an inhibitor, the amount of ADP formed by the kinase reaction is reduced, and the resulting intact antibody-tracer interaction maintains a high TR-FRET signal. In the Adapta™ assay, the donor (Europium-anti-ADP antibody) is excited at 340 nm and will transfer its energy to the acceptor (Alexa Fluor® 647-labeled ADP tracer). The emission from the Alexa Fluor® 647 can be monitored with a filter centered at 665 nm because it is located between the emission peaks of the donor, which is measured at 615/620 nm. 50 nL of compound dilutions were dispensed onto white 384-well small volume polystyrene plate as described in section 2.2. Then 5 μL of PI3Kgamma and PI3Kdelta and lipid substrate (PI or PIP2:PS) followed by 5 μL of ATP (final assay volume 10 μL) are incubated at RT. […] Reactions were stopped with 5 μL of a mixture of EDTA containing the Eu-labeled anti-ADP antibody and the Alexa Fluor® 647-labeled ADP tracer in TR-FRET dilution buffer (proprietary to IVG). Plates are read 15 to 60 mins later in a Synergy2 reader using an integration time of 0.4 seconds and a delay of 0.05 seconds. […] The control for the 0% inhibition was given by the solvent vehicle of the compounds (90% DMSO in H2O). Data are analyzed using Excel fit software or Graphpad Prism. EC50 values were derived by fitting a sigmoidal dose-response curve to a plot of assay readout over inhibitor concentration. […]
Chain of PI3K delta (O00329 2-1044): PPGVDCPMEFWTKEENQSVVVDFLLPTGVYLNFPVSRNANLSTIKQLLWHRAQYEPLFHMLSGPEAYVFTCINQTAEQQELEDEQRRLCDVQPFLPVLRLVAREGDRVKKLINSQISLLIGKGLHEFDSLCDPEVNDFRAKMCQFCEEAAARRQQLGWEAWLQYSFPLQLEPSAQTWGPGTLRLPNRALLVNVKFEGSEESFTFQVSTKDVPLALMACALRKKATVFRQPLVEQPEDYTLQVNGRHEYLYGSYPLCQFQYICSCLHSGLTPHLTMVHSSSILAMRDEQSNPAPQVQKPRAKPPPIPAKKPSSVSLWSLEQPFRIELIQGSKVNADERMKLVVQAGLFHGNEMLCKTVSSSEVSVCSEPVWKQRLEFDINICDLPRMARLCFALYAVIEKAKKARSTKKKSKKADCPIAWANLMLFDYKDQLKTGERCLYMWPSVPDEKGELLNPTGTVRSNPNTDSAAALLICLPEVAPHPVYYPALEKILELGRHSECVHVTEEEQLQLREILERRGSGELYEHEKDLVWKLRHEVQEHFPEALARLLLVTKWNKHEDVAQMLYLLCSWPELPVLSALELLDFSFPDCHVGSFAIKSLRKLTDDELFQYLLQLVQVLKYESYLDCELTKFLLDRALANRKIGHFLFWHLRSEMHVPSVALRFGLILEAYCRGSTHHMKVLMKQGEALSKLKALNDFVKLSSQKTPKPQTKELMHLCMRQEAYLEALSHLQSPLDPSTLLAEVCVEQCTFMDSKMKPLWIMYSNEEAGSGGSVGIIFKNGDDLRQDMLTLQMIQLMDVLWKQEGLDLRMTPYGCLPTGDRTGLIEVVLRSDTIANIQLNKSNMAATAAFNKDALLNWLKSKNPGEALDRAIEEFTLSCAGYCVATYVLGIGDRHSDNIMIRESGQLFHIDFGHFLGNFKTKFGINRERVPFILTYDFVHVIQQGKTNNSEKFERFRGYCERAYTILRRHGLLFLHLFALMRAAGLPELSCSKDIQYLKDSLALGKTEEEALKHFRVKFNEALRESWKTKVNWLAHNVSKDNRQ
Chain of PI3K delta (P27986 461-568 partner): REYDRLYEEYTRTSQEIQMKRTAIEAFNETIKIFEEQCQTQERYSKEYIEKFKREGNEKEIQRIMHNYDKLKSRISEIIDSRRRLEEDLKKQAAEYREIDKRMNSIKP
Background: TR-FRET usually uses a lanthanide donor and a delayed reading to cut background.

The target of the next experiment is PI3K gamma (Homo sapiens (Human), UniProt P48736). The experiment in a line: Biochemical assay for PI3Kgamma (Adapta TR-FRET format).
Chain of PI3K gamma (P48736 whole entry): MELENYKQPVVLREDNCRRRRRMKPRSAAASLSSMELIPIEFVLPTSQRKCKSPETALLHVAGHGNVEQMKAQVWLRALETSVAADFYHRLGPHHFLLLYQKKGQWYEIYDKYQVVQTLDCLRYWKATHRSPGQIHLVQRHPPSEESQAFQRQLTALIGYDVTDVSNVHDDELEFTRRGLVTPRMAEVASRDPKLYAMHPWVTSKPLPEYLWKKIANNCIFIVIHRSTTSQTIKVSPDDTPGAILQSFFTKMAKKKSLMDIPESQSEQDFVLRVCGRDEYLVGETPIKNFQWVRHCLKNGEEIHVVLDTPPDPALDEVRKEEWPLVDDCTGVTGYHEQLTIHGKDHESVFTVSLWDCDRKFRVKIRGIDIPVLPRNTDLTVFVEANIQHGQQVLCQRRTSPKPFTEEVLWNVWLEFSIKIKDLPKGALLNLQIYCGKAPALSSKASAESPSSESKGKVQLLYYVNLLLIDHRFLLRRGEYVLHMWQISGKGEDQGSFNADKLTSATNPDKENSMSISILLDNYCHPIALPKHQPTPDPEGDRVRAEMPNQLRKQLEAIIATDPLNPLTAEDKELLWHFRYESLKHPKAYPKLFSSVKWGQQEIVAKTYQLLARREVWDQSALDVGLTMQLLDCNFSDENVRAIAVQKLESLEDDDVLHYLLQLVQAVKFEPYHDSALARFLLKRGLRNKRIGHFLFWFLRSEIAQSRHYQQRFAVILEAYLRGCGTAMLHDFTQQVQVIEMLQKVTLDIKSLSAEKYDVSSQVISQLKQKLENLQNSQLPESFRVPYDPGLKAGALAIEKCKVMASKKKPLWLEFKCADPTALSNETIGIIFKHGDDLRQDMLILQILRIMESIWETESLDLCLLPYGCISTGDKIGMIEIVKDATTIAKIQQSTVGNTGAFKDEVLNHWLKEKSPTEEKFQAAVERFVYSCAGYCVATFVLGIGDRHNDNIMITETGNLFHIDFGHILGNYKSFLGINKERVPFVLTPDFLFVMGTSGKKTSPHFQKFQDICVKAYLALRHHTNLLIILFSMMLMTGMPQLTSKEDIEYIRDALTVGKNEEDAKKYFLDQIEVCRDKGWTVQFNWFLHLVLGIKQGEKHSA
Description: as §1

The next experiment has as its target PI3K alpha (Homo sapiens (Human), UniProt P42336). The experiment in a line: Biochemical assay for PI3Kalpha (Kinase-Glo format). Here is the method:
1.1 Generation of Gene Constructs, Protein Expression and Purification
For the enzymatic assays, the preparation of PI3K gene constructs, protein expression and purification for HTS are described in WO2012/004299.
1.2 Biochemical Assays for PI3Kalpha, PI3Kbeta (Kinase-Glo Format)
The kinase reaction is performed in a final volume of 50 μl per well of a half area COSTAR, 96 well plate. The final concentrations of ATP and phosphatidyl inositol in the assay are 5 μM and 6 μg/mL, respectively. The reaction is started by the addition of PI3 kinase, e.g. PI3 kinase α.
The components of the assay are added per well as follows: • 10 μl test compound in 5% DMSO per well in […]. • Total activity is determined by addition 10 μl of 5% vol/vol DMSO in the first 4 wells of column 1 and the last 4 wells of column 12. • The background is determined by addition of 10 μM control compound to the last 4 wells of column 1 and the first 4 wells of column 12. • 2 mL ‘Assay mix’ are prepared per plate: • 1.912 mL of HEPES assay buffer • 8.33 μl of 3 mM stock of ATP giving a final concentration of 5 μM per well • 1 μl of [^33P]ATP on the activity date giving 0.05 μCi per well • 30 μl of 1 mg/mL PI stock giving a final concentration of 6 μg/mL per well • 5 μl of 1 M stock MgCl2 giving a final concentration of 1 mM per well • 20 μl of the assay mix are added per well. • 2 mL ‘Enzyme mix’ are prepared per plate (x* μl PI3 kinase p110α in 2 mL of kinase buffer). The ‘Enzyme mix’ is kept on ice during addition to the assay plates. * The volume of enzyme is dependent on the enzymatic activity of the batch in use. • 20 μl ‘Enzyme mix’ are added/well to start the reaction. • The plate is then incubated at room temperature for 90 minutes. • The reaction is terminated by the addition of 50 μl WGA-SPA bead (wheat germ agglutinin-coated Scintillation Proximity Assay beads) suspension per well. • The assay plate is sealed using TopSeal-S (heat seal for polystyrene microplates, PerkinElmer LAS [Deutschland] GmbH, Rodgau, Germany) and incubated at room temperature for at least 60 minutes. • The assay plate is then centrifuged at 1500 rpm for 2 minutes using the Jouan bench top centrifuge (Jouan Inc., Nantes, France). • The assay plate is counted using a Packard TopCount, each well being counted for 20 seconds.
In a more preferred assay, the kinase reaction is performed in a final volume of 10 μl per well of a low volume non-binding CORNING, 384 well black plate (Cat. No. #3676). The final concentrations of ATP and phosphatidyl inositol (PI) in the assay are 1 μM and 10 μg/mL, respectively. The reaction is started by the addition of ATP.
The components of the assay are added per well as follows: […]
(Kinase-Glo reads ATP consumption through a luciferase reaction.)

Chain of PI3K alpha (P42336 21-1068): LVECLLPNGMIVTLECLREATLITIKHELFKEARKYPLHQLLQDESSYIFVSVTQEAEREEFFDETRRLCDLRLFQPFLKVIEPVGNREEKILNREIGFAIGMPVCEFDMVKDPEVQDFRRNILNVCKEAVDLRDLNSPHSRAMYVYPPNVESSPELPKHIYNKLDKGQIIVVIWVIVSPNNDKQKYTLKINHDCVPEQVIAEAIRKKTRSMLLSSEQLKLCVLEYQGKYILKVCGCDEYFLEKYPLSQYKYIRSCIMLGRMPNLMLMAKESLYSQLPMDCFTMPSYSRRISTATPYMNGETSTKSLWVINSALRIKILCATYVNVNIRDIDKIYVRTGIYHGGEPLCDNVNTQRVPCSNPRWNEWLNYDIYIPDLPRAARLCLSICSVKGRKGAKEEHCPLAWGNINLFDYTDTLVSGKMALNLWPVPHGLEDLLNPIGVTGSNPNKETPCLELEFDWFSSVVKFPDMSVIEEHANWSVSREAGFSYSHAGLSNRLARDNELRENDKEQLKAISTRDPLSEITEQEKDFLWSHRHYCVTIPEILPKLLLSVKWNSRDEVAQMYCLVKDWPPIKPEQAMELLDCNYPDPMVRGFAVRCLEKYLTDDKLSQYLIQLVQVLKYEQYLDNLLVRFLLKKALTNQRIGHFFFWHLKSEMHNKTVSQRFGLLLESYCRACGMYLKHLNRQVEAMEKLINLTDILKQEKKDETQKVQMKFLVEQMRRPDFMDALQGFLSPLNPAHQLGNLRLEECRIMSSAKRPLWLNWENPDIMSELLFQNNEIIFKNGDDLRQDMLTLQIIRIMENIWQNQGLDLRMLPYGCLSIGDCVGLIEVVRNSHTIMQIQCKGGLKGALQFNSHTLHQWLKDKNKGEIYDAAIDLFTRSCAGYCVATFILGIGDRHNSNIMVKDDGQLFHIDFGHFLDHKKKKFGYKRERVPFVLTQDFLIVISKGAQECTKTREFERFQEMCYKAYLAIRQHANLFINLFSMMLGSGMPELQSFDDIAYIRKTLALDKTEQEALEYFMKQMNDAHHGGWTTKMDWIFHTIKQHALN
Chain of PI3K alpha (P27986 461-568 partner): as the sequence (P27986 461-568 partner) above

As for `COc1ccc(-c2cccc3nc([C@@H]4CCCN4c4nc(N)nc(C)c4C#N)n(-c4ccccc4)c(=O)c23)cn1` [Example 21, (S)-2-Amino-4-(2-(5-(6-methoxypyridin-3-yl)-4-oxo-3-phenyl-3,4-dihydroquinazolin-2-yl)pyrrolidin-1-yl)-6-methylpyrimidine-5-carbonitrile], the IC50 at PI3K delta stood at 24 nM; at PI3K gamma, 270 nM; against PI3K alpha, 260 nM.

For the molecule `COc1ncc(-c2cccc3nc([C@@H]4C[C@H](O)CN4c4nc(N)nc(C)c4C#N)n(-c4ccccc4)c(=O)c23)cn1` [Example 22, 2-Amino-4-((2S,4S)-4-hydroxy-2-(5-(2-methoxypyrimidin-5-yl)-4-oxo-3-phenyl-3,4-dihydroquinazolin-2-yl)pyrrolidin-1-yl)-6-methylpyrimidine-5-carbonitrile], the IC50 on PI3K delta stood at 5 nM; on PI3K gamma, 130 nM; at PI3K alpha, 580 nM.

As for `Cc1nc(N)nc(N2C[C@@H](O)C[C@H]2c2nc3cccc(-c4cccnc4)c3c(=O)n2-c2ccccc2)c1C#N` [Example 24, 2-Amino-4-((2S,4S)-4-hydroxy-2-(4-oxo-3-phenyl-5-(pyridin-3-yl)-3,4-dihydroquinazolin-2-yl)pyrrolidin-1-yl)-6-methylpyrimidine-5-carbonitrile], the IC50 on PI3K delta worked out at 5 nM; at PI3K gamma it was 81 nM; at PI3K alpha it was 170 nM.

As to `COc1cncc(-c2cccc3nc([C@@H]4C[C@H](O)CN4c4nc(N)nc(C)c4C#N)n(-c4ccccc4)c(=O)c23)c1` [Example 25, 2-Amino-4-((2S,4S)-4-hydroxy-2-(5-(5-methoxypyridin-3-yl)-4-oxo-3-phenyl-3,4-dihydroquinazolin-2-yl)pyrrolidin-1-yl)-6-methylpyrimidine-5-carbonitrile], the figures for the IC50 at PI3K delta, on PI3K gamma and on PI3K alpha were 5 nM, 65 nM and 48 nM, respectively.

Turning to `Cc1nc(N)nc(N2C[C@@H](O)C[C@H]2c2nc3cccc(-c4cncnc4)c3c(=O)n2-c2ccccc2)c1C#N` [Example 26, 2-Amino-4-((2S,4S)-4-hydroxy-2-(4-oxo-3-phenyl-5-(pyrimidin-5-yl)-3,4-dihydroquinazolin-2-yl)pyrrolidin-1-yl)-6-methylpyrimidine-5-carbonitrile], the IC50 came to 6 nM on PI3K delta, 410 nM at PI3K gamma and 530 nM on PI3K alpha.

On to `COc1ccc(-c2cccc3nc([C@@H]4C[C@H](O)CN4c4nc(N)nc(C)c4C#N)n(-c4ccccc4)c(=O)c23)cn1` [Example 27, 2-Amino-4-((2S,4S)-4-hydroxy-2-(5-(6-methoxypyridin-3-yl)-4-oxo-3-phenyl-3,4-dihydroquinazolin-2-yl)pyrrolidin-1-yl)-6-methylpyrimidine-5-carbonitrile], for which the IC50 was 10 nM at PI3K delta, 58 nM on PI3K gamma and 86 nM on PI3K alpha.

Turning to `Cc1nc(N)nc(N2C[C@@H](O)C[C@H]2c2nc3cccc(-c4cnn(CCO)c4)c3c(=O)n2-c2ccccc2)c1C#N` [Example 28, 2-Amino-4-((2S,4S)-4-hydroxy-2-(5-(1-(2-hydroxyethyl)-1H-pyrazol-4-yl)-4-oxo-3-phenyl-3,4-dihydroquinazolin-2-yl)pyrrolidin-1-yl)-6-methylpyrimidine-5-carbonitrile], the IC50 on PI3K delta was 10 nM; on PI3K gamma it was 21 nM; at PI3K alpha it was 240 nM.

As for `CCOc1ncc(-c2c(F)ccc3nc([C@@H]4C[C@H](O)CN4c4nc(N)nc(C)c4C#N)n(-c4ccccc4)c(=O)c23)cn1` [Example 29, 2-Amino-4-((2S,4S)-2-(5-(2-ethoxypyrimidin-5-yl)-6-fluoro-4-oxo-3-phenyl-3,4-dihydroquinazolin-2-yl)-4-hydroxypyrrolidin-1-yl)-6-methylpyrimidine-5-carbonitrile], the IC50 was found to be 4 nM on PI3K delta, 13 nM on PI3K gamma and 370 nM at PI3K alpha.
